The values that follow come from US5981517A, “Androstene derivatives” (priority 1997, dated 1999).

The subject of data set [1] is forearm of a human volunteer. The data set is described as follows: Human vasoconstriction test. The format is in vivo. Details: key: 0 = normal skin, 4 = very intense pallor. The settings on record: 10 mM.
Data set [2] can be described thus: Stability in human plasma. The data set is classed as in vitro ADME. The note with it: human plasma, 100 μM, 37° C. The method, then:
(§1) A Waters NOVA-PAK phenyl column was connected to a Spectra-Physics component system consisting of a SP 8810 precision isocratic pump, a Rheodyne 7125 injector (injection volume 20 μL), an SP 8450 UV/VIS variable wavelength detector (operated at 254 nm) and a SP 4270 integrator. […]. The retention times of compound of the invention J and its metabolities L and M were 8.64, 2.70 and 2.45 minutes, respectively. The retention times of compound of the invention I and its metabolites N and 0 were 5.84, 2.70 and 1.81 minutes, respectively. The retention time of cortienic acid was 1.00 minute.
(§2) Freshly collected human or rat plasma was used. An aliquot of 10 mM test compound in ethanol solution was added to prewarmed (37° C.) plasma to yield a final concentration of 100 μM. At appropriate time intervals, samples (0.1 mL) were removed and mixed with 0.2 mL of 5% dimethylsulfoxide/acetonitrile solution. Mixtures were centrifuged and supernatants were analyzed by HPLC. The pseudo-first order rate constant of the disappearance of compound in the biological media was determined by linear regression analysis from the plot of log peak area and peak height versus time.
(§3) Stability was evaluated by the pseudo first-order rate constant (k, hr^-1) and half-life (t1/2, hr) of the disappearance of the test compound in the media.

A further data set can be described thus: Stability in rat blood. The data set is classed as in vitro ADME. The note with it: rat blood, 0.1 mM, 37° C.; read-out: Half-life (t1/2), Blood. As to the method:
(§4) A Whatman C-18 column (4.6 mm×108 mm) was connected to a Spectra-Physics component system consisting of a SP 8810 precision isocratic pump, Rheodyne 7125 injector (20 μL injection volume), SP 8450 UV/VIS variable wavelength detector (230 nm), and SP 4290 integrator. The system was operated at ambient temperature. The mobile phase consisted of acetonitrile, acetic acid and water (60:0.1:40). At a flow rate of 1.0 mL/minute, the retention times for the test compounds were 4.74 minutes for Compound A, 5.84 minutes for Compound B, 6.93 minutes for Compound C, and 5.72 minutes for Compound D.
(§5) HPLC peak area and peak height were used as a measure of the concentration of the test compounds and plotted against time to evaluate the disappearance rates of the compounds. The stability was determined by measuring the pseudo-first order rate constant (kobs in min^-1) or half-life (t1/2 in min) of disappearance of the test compound in buffer. […].
(§6) A 0.2 mL aliquot of stock solution (1 mM) of each of the test compounds A, B, C, and D, was added to 2 mL of each biological media (whole heparinized rat blood, 20% rat liver homogenate, and 6-volume diluted lung homogenate in isotonic buffer of pH 7.40 made by combining 0.05 M of Na2 HPO4 and 0.05 M of NaH2 PO4 with 0.05 M of NaCl), which was kept in a 37° C. water bath, to obtain a final concentration of 0.1 mM in each biological medium. Samples of 0.1 mL were taken at appropriate time intervals for 2 hours (at 0, 3, 5, 10, 20, 40, 60, 90 and 120 minutes) and mixed with 0.2 mL of acetonitrile containing 5% DMSO. Each mixture was centrifuged and the supernatant was injected in the HPLC.

The next data set is described as follows: physchem. The data set is classed as physicochemical. The method, then: as §4, §5
The stabilities of test compounds A, B, C, and D, were tested in buffer solutions in the pH range of 4.0 to 9.0. A 0.1 mL portion of each compound at a concentration of 1 mM was mixed with 10 mL phosphate buffer (made by combining 0.05 M of NaH2 PO4 and 0.05 M of Na2 HPO4 with 0.05 M of NaCl) to give a final concentration of 0.01 mM. The mixtures were incubated at 37° C., and samples were taken and injected in the HPLC system at appropriate time intervals. pH profiles of each test compound are shown in TABLE III below. […]

Data set [3] in a line: Stability in liver homogenate. The format is in vitro ADME, rat. The note with it: 20% rat liver homogenate, 0.1 mM, 37° C.; read-out: Half-life (t1/2), Liver. As to the method: as §4, §5, §6
Data set [4] can be described thus: Stability in lung homogenate. The format is in vitro ADME. The settings on record: rat; 6-volume diluted lung homogenate, 0.1 mM, 37° C.; read-out: Half-life (t1/2), Lung. As to the method:
as §4, §5, §6

Another data set in a line: Stability in rat plasma. The format is in vitro ADME. The settings on record: rat plasma, 100 μM, 37° C. The method, then: as §1, §2, §3

Consider `CCOC(=O)[C@@]1(OC(=O)C(Cl)Cl)CC[C@H]2[C@@H]3CCC4=CC(=O)C=C[C@]4(C)[C@H]3[C@@H](O)C[C@@]21C` [Compound B, Ethyl 17α-dichloroacetoxy-11β-hydroxyandrosta-1,4-dien-3-one-17β-carboxylate], for which the Vasoconstriction activity was 3 in data set [1] (1 hour after patch removal), 4 in data set [1] (8 hours after patch removal), 4 in data set [1] (17 hours after patch removal) and 4 in data set [1] (24 hours after patch removal). The “k (pseudo first-order rate constant)” value in data set [2] was 0.138 h⁻¹; in “Stability in rat plasma” it was 0.136 h⁻¹. Further, the half-life at 100 µM in data set [2] (read-out: t1/2 (converted)) was 5.03 h; in “Stability in rat blood”, 1.29 h; in data set [3], 0.313 h; in data set [4] it was 2.29 h; in “Stability in rat plasma” (read-out: t1/2 (converted)), 5.08 h. In addition, the half-life in “physchem” (aqueous phosphate buffer, pH 4.5) was > 48 h; in the data set “physchem” (aqueous phosphate buffer, pH 6.56) it was 16.7 h; in “physchem” (aqueous phosphate buffer, pH 7.4) it was 5.08 h; in “physchem” (aqueous phosphate buffer, pH 8.08), 0.867 h; in the data set “physchem” (aqueous phosphate buffer, pH 9) it was 0.144 h; in “physchem” (buffer, pH 7.4), 5.08 h.
